Assay results published in US20030203969A1, “Pharmaceutically active aromatic guanylhydrazones” (priority 2000, published 2003).

Tests used:
[1] = system: macrophage-tropic HIV-1Ba-L strain; test: Inhibition of macrophage-tropic HIV-1 Ba-L replication in de novo infected PM1 cells (p24 antigen); format: cell-based
Protocol: (§1) HIV replication was measured either by p24 HIV Antigen Capture Assay Kit (ELISA; HIVAG-1 Monoclonal kit BIA011; Abbott) following the manufacturer's recommendation, or by using the Quantiplex HIV-1 RNA 3.0 Assay (bDNA) system (Chiron Diagnostics). The latter assay is a signal amplification nucleic acid probe assay (employing a sandwich nucleic acid hybridization procedure) for direct quantitation of HIV RNA in human plasma. There, in brief, HIV-1 is first concentrated from plasma by centrifugation. After release of genomic HIV-1 RNA from the virions, the RNA is captured to a microwell by a set of specific, synthetic oligonucleotide capture probes. A set of target probes hybridize to both the viral RNA and the pre-amplifier probes. The capture probes, comprised of 17 individual capture extenders, and the target probes, comprised of 81 individual target extenders, bind to different regions of the pol gene of the viral RNA. The amplifier probe hybridizes to the pre-amplifier forming a branched DNA (bDNA) complex. Then, multiple copies of an alkaline phosphatase labeled probe are hybridized to this immobilized bDNA complex. Detection is achieved by incubating the entire complex with a chemoluminescent substrate. Light emission is directly proportional to the amount of HIV-1 RNA present in each sample, and results are recorded as relative light units by an appropriate analyzer.
(§2) Jurkat cells (species: human T-cell leukemia; special characteristics: cells are permissive for growth of T-cell tropic HIV strains; source:ATCC Cat.No. TIB 152) or PM1 cells (species: clonal derivative of human HUT 78 cells; special characteristics: cells are permissive for growth of macrophage-tropic and T-cell tropic HIV strains; source: Dr. Marvin Reitz, courtesy of the NIH AIDS Research and Reference Reagent Program Cat.No. 3038) were stimulated with Phytohemagglutinin (PHA-P, Product No. L9132 from Sigma) in a concentration of 2 μg/ml (1.5×10^6 cells/ml) and Hexadimethrine Bromide (Polybrene, Product No. H9268 from Sigma) in a concentration of 2 μg/ml (1.5×10^6 cells/ml) in RPMI 1640 medium containing 10% fetal calf serum (FCS, Pansystems GmbH) and antibiotics for 3 days.
(§3) For HIV-1 infection, 5×10^7 cells were resuspended in 500 μl culture medium without test drugs and incubated in a 50 ml blue-cap-tube at 37° C. for 5 hrs with HIV-1 high titer viral stocks. Jurkat cells were infected with the T-cell tropic strain HIV-1 NL4-3, PM1 cells with the macrophage tropic strain HIV-1 Ba-L (both from the NIH AIDS Research and Reference Reagent Program). After infection, cells were washed twice with PBS without Ca^2+ and Mg^2+ to avoid false positive p24 antigen determination. Cells were resuspended, and identical aliquots (1×10^6/ml) of infected cells were further cultured in 10 ml medium with test drugs at various concentrations, or in medium with DMSO as control for calculation of the inhibition of virus replication (in %].
(§4) Culture medium was changed and cells were split at days 3 and 7 of the experiments. Viability of the cells (Trypan-blue staining), cell counts and p24 antigen levels were determined at days 3, 7 and 10 of the experiments. No significant differences in cell viability were observed (˜85-90% living cells).
(§5) At day 10 of infection, the HIV strains replicated vigorously in untreated cultures. Numbers describe percent inhibition of HIV replication as compared to control experiments.

[2] = molecular target: T1, deoxyhypusine synthase (DHS) (Homo sapiens, UniProt P49366); test: In vitro DHS screening assay (hypusine formation on eIF-5A); format: biochemical
T1 construct: made in house; host or cells: E. coli BL21 (DE3), pGex vector
T1 sequence (P49366 1-369): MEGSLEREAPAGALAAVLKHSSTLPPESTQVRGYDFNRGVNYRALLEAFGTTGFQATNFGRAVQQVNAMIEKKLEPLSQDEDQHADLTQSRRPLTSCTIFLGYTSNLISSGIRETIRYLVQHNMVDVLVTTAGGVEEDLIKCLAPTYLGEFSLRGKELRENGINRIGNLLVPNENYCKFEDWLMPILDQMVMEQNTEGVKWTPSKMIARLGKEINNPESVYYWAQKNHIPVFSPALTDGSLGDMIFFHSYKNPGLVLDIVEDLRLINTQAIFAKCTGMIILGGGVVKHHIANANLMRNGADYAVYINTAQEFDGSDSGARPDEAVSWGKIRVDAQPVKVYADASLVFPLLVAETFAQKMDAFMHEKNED

[3] = system: T-cell-tropic HIV-1NL4/3 strain; test: Inhibition of T-cell-tropic HIV-1 NL4/3 replication in de novo infected Jurkat cells (p24 antigen); format: cell-based
Protocol: as §1, §2, §3, §4, §5

E. Coli XL-1 blue strain = test: Growth assay for E. coli (optical density at 610 nm); format: cell-based; settings: LB medium, 37° C., one day; read-out: IC50 (μM) E. coli proliferation
Protocol: We used the E. Coli XL-1 blue strain (Stratagene) for the investigation of antibacterial activity. During this experiments LB medium was used for E. coil growth. LB was prepared as follows: 1% trypton (weight/volume), 0.5% Yeast extract (weight/volume), and 1.5% NaCl (weight/volume) were dissolved in water and autoclaved. The media contained the inhibitor at 100 μM, 10 μM, or 1 μM concentrations, respectively.
The assay was performed as follows: bacteria were seeded to 96-well plates containing the respective inhibitors. The bacteria-containing plates were incubated at 37° C. for one day. After incubation time, E. coli growth was assayed by the measurement of the optical density at 610 nm wavelength.

| SMILES | percent inhibition of HIV replication as compared to control ([1]; 1.0 μM, d7) [%] | percent inhibition of HIV replication as compared to control ([1]; 1.0 μM, d10) [%] | percent inhibition of HIV replication as compared to control ([1]; 5.0 μM, d7) [%] | percent inhibition of HIV replication as compared to control ([1]; 5.0 μM, d10) [%] | inhibition of the hypusine formation on the elF-5A protein [2] | percent inhibition of HIV replication as compared to control ([3]; HIV-1 NL4/3, 1.0 μM, d7) [%] | percent inhibition of HIV replication as compared to control ([3]; HIV-1 NL4/3, 1.0 μM, d10) [%] | percent inhibition of HIV replication as compared to control ([3]; HIV-1 NL4/3, 5.0 μM, d7) [%] | percent inhibition of HIV replication as compared to control ([3]; HIV-1 NL4/3, 5.0 μM, d10) [%] | IC50 (E. Coli XL-1 blue strain) [µM] |
| --- | --- | --- | --- | --- | --- | --- | --- | --- | --- | --- |
| C/C(=N\N=C(N)N)c1ccc(NC(=O)Nc2cc(/C(C)=N/N=C(N)N)cc(/C(C)=N/N=C(N)N)c2)cc1 [Compound 1, N-(4-acetylphenyl)-N′-(3,5-diacetylphenyl)urea tris (amidinohydrazone)] | 23 | 0 | 72 | 51 | potent inhibitors | 15 | 5 | 52 | 31 | < 0.1 |
| CC(=NNC(=N)N)c1cc(NC(=O)CCC(=O)Nc2cc(C(C)=NNC(=N)N)cc(C(C)=NNC(=N)N)c2)cc(C(C)=NNC(=N)N)c1 [Compound 5, N,N′-bis (3,5-diacetylphenyl) butane diamide tetrakis (amidinohydrazone)] | 48 | 35 | 97 | 86 | potent inhibitors | 26 | 0 | 70 | 16 | < 0.1 |
